{
  "source": "patent US8936807B2",
  "about": "“Use of the cathelicidin LL-37 and derivatives thereof for wound healing” (Lipopeptide AB, priority 2003, dated 2015)",
  "key": {"HaCat cells [1]": {"system": "HaCat cells", "assay": "Proliferation of HaCat cells assessed by 3H-Thymidine incorporation", "format": "cell-based, human", "details": "10% serum, 96 h; for Increased Proliferation (%): vs control 0 μg/ml", "protocol": "HaCat cells were cultured in medium (DMEM, +10% FCS and PEST). HaCaT cells were plated in 96 well plates (Falcon, USA) at the concentration of 2000 cells per well. Cells were plated at −48 hours and stimulated with different concen-trations of synthetic LL-37, LL-36, and LL-38 peptide by hour 0 and after 48 hours.\nThe testing was done in one experiment with 6 wells in each condition. […] of ^3H-Thymidine (THYMIDINE, [METHYL-^3H]-740.0 GBq/mmol (20.00 Ci/mmol) 1.0 ml of Ethanol:Water, 7:3, Perkin Elmer Life Sciences Inc. Boston Mass., USA) was added to each well and incubated for 12-17 hours. Proliferation was evaluated by ^3H-Thymidine incorporation a liquid scintilator (MicroBeta Perkin Elmer Life Sciences Inc. Boston Mass., USA) after 72 and 96 hours."}, "HaCat cells [2]": {"system": "HaCat cells", "assay": "Proliferation and viability of HaCat cells measured by mitochondrial activity (WST-1)", "format": "cell-based, human", "details": "LL-37 100 μg/ml, 10% serum, 48 h", "protocol": "HaCat cells were used for these experiments. HaCat cells are an immortalized human keratinocyte cell line (Boukamp et al., J Cell Biol 106:761-771, 1988), which is suitable for experimental keratinocyte research. HaCat cells were cultured in medium (DMEM, +10% FCS and PEST). Both types of cell cultures were treated with synthetic, bioactive LL-37 (lot YS 5253). In addition a mixture of LL-37 (114 μg/ml) and CPL-Galactolipid (0.2%) in medium containing serum at either 2 or 10% was added to evaluate the capacity to increase proliferation and inhibit cytotoxicity. Cells were harvested at different time-points (24 h, 48 h, 72 h and 96 h) and counted by flowcytometry (Becton-Dickinson) and stained by Trypan-Blue to evaluate viability. […] Proliferation and viability were also ascertained by measuring mitochondrial activity (WST-1, Roche, Cook et al. Anal Biochem 179:1-7, 1989)."}, "[3]": {"assay": "Storage of the CD samples for one month at 4° C.", "format": "physicochemical", "protocol": "(§1) Samples for circular dichroism (CD) measurements were prepared in 10 mM aqueous phosphate buffer solution, pH 7.0, containing 200 ppm LL-37 (as the trifluoroacetate, lot 971/26), with and without 0.40% CPL-Galactolipid. The samples, 20 ml in 50 ml glass flasks, were vigorously shaken with an ST mixer (type B1, E. Büchler, Tübingen) set at 7.5 (corresponding to an approximate frequency of 220/min) for 2 h. They were then allowed to equilibrate and settle over night at 2-8° C.\nAn anionic synthetic phospholipid, palmitoyl-oleoyl-phosphatidylglycerol (POPG; Sigma-Aldrich, P6956) was used as a reference and tested using the same experimental conditions as described above."}, "Human Normal Fibroblast": {"system": "Human Normal Fibroblast", "assay": "Proliferation and viability of human normal fibroblasts (WST-1)", "format": "cell-based", "details": "10% serum, 48 Hours; for Increased Proliferation (%): vs control", "source_text": "(§2) The peptide LL-37 used in this and following tests was as described in Example 1 (lot 971/26). The fibroblasts, a type of stromal cells, were obtained from injured and uninjured skin in patients with chronic leg ulcers due to venous insufficiency. Punch-biopsies (4-mm) were taken from the wound margin including 50% of the epithelialized area and from uninjured skin in the knee region. Individuals with a history of diabetes mellitus, arterial insufficiency or chronic inflammatory disease were excluded. Patients with signs of eczema in the ulcer margin, clinical signs of infection or undergoing systemic or topical antibiotic treatment at the time for biopsy were also excluded. Patients included were all treated with inert local dressings and standard compression bandaging.\n(§3) Fibroblast were put in culture using explant technique (Hehenberger et al., Cell Biochem Funct 15:197-201, 1997). Fibroblasts were plated in 96 well plates (Falcon, USA) at the concentration of 2000 cells per well. Cells were plated at −48 hours and stimulated with different concentrations of synthetic LL-37 peptide by hour 0. The testing was done in one experiment with 6 wells in each condition. Proliferation and viability were ascertained by measuring mitochondrial activity (WST-1, Roche) after 24 h and 48 h. Increase in cell proliferation (Proliferation Index) is calculated in comparison with baseline (Control=0 μg/ml). Mean values from six samples per condition in one experiment are presented."}, "Human Wound Fibroblast": {"system": "Human Wound Fibroblast", "assay": "Proliferation and viability of human wound fibroblasts (WST-1)", "format": "cell-based", "details": "48 Hours; for Increased Proliferation (%): vs control", "source_text": "as §2, §3"}, "[4]": {"assay": "Circular dichroism (CD) conformational measurements", "format": "physicochemical", "protocol": "as §1\nCD spectra were recorded on a Jasco J-720 (Jasco Inc.) spectropolari-meter. The sample compartment with the cuvette cell (1 mm path length) was placed near the photomultiplier, in order to reduce effects of light scattering from the disper-sions. The samples were measured at room temperature and scanned from 280 to 200 nm at a rate of 20 nm/min, with a resolution of 1 nm and 3 accumulations per run. The results are expressed as the mean residue ellipticity, [θ], and the percentage of α-helical conformation at 222 nm is estimated by the following formula: ([θ]222+3900)·100/41900."}, "[5]": {"details": "LL-37 25 μg/ml, no lipid, 10% serum"}, "[6]": {"details": "LL-37 50 μg/ml, no lipid, 10% serum"}, "[7]": {"details": "LL-37 100 μg/ml, no lipid, 10% serum"}, "[8]": {"details": "LL-37 100 μg/ml, with lipid 0.2%, 2% serum"}},
  "data": [
    {"sequence": "LLGDFFRKSKEKIGKEFKRIVQRIKDFLRNLVPRTES [LL-37]", "values": [
      {"measurement": "Counts Per Minute (Mean)", "setting": "HaCat cells [1]; LL-37 1.00 μg/ml", "value": 75445, "unit": "Counts Per Minute"},
      {"measurement": "Increased Proliferation (%)", "setting": "HaCat cells [1]; LL-37 1.00 μg/ml", "value": 43, "unit": "%"},
      {"measurement": "Counts Per Minute (Mean)", "setting": "HaCat cells [1]; LL-37 5.00 μg/ml", "value": 102353, "unit": "Counts Per Minute"},
      {"measurement": "Increased Proliferation (%)", "setting": "HaCat cells [1]; LL-37 5.00 μg/ml", "value": 94, "unit": "%"},
      {"measurement": "Counts Per Minute (Mean)", "setting": "HaCat cells [1]; LL-37 10.00 μg/ml", "value": 73548, "unit": "Counts Per Minute"},
      {"measurement": "Increased Proliferation (%)", "setting": "HaCat cells [1]; LL-37 10.00 μg/ml", "value": 39, "unit": "%"},
      {"measurement": "Counts Per Minute (Mean)", "setting": "HaCat cells [1]; LL-37 25.00 μg/ml", "value": 76510, "unit": "Counts Per Minute"},
      {"measurement": "Increased Proliferation (%)", "setting": "HaCat cells [1]; LL-37 25.00 μg/ml", "value": 45, "unit": "%"},
      {"measurement": "Counts Per Minute (Mean)", "setting": "HaCat cells [1]; LL-37 50.00 μg/ml", "value": 65119, "unit": "Counts Per Minute"},
      {"measurement": "Increased Proliferation (%)", "setting": "HaCat cells [1]; LL-37 50.00 μg/ml", "value": 23, "unit": "%"},
      {"measurement": "Absorbance", "setting": "HaCat cells [2]", "value": 1.110},
      {"measurement": "Trypan Blue + (%)", "setting": "HaCat cells [2]", "value": "<1", "unit": "%"},
      {"measurement": "Increased Proliferation (%)", "setting": "HaCat cells [2]; vs baseline", "value": 78, "unit": "%"},
      {"measurement": "appearance after storage", "setting": "[3]; LL-37 with POPG", "value": "partially separated, with sediments on the bottom of the container"},
      {"measurement": "appearance after storage", "setting": "[3]; LL-37 with galactolipid", "value": "redispersed to a fine dispersion by gentle agitation"},
      {"measurement": "Absorbance", "setting": "Human Normal Fibroblast; LL-37 25 μg/ml", "value": 0.597},
      {"measurement": "Increased Proliferation (%)", "setting": "Human Normal Fibroblast; LL-37 25 μg/ml", "value": 7, "unit": "%"},
      {"measurement": "Absorbance", "setting": "Human Normal Fibroblast; LL-37 50 μg/ml", "value": 0.626},
      {"measurement": "Increased Proliferation (%)", "setting": "Human Normal Fibroblast; LL-37 50 μg/ml", "value": 12, "unit": "%"},
      {"measurement": "Absorbance", "setting": "Human Normal Fibroblast; LL-37 100 μg/ml", "value": 0.669},
      {"measurement": "Increased Proliferation (%)", "setting": "Human Normal Fibroblast; LL-37 100 μg/ml", "value": 19, "unit": "%"},
      {"measurement": "Absorbance", "setting": "Human Wound Fibroblast; [5]", "value": 1.171},
      {"measurement": "Increased Proliferation (%)", "setting": "Human Wound Fibroblast; [5]", "value": 49, "unit": "%"},
      {"measurement": "Absorbance", "setting": "Human Wound Fibroblast; [6]", "value": 1.073},
      {"measurement": "Increased Proliferation (%)", "setting": "Human Wound Fibroblast; [6]", "value": 37, "unit": "%"},
      {"measurement": "Absorbance", "setting": "Human Wound Fibroblast; [7]", "value": 0.955},
      {"measurement": "Increased Proliferation (%)", "setting": "Human Wound Fibroblast; [7]", "value": 22, "unit": "%"},
      {"measurement": "Absorbance", "setting": "Human Wound Fibroblast; [8]", "value": 0.960},
      {"measurement": "Increased Proliferation (%)", "setting": "Human Wound Fibroblast; [8]", "value": 22, "unit": "%"},
      {"measurement": "percentage α-helical structure", "setting": "[4]; 200 ppm LL-37 in 10 mM phosphate buffer, pH 7.0, from minimum at 222 nm", "value": "about 63%"},
      {"measurement": "percentage α-helical structure", "setting": "[4]; 200 ppm LL-37 with 0.40% (w/w) galactolipid, 10 mM phosphate buffer pH 7.0", "value": "~64", "unit": "%"},
      {"measurement": "percentage α-helical structure", "setting": "[4]; LL-37 with POPG (anionic phospholipid), same conditions", "value": 58, "unit": "%"}
    ]}
  ]
}
